Source: patent US9708314B2, “Heterocyclic amide compound” (NISSAN CHEMICAL INDUSTRIES, LTD., priority 2013, dated 2017)

What was measured:
Assay type in all cases: in vivo
Abutilon theophrasti = experiment: Test Example 4: herbicidal effect by application to foliage (diluvial soil, plastic box); settings: Application herbicide amount 320 g/ha
Text: (§1) 5 Herbicidal ratio of 90% or more (almost completely withered) 4 Herbicidal ratio of 70% or more and less than 90% 3 Herbicidal ratio of 40% or more and less than 70% 2 Herbicidal ratio of 20% or more and less than 40% 1 Herbicidal ratio of 5% or more and less than 20% 0 Herbicidal ratio of 5% or less (almost no effect) [Test Example 4] Herbicidal Effect Test by Application to Foliage Sterilized diluvial soil was placed in a plastic box having a length of 21 cm, a width of 13 cm, and a depth of 7 cm. Each of the seeds of Digitaria ciliaris, Setaria viridis, Echinochloa crus-galli var. crus-galli, Avena fatua, Alopecurus myosuroides, Lolium multiflorum Lam., Apera spica-venti., Abutilon theophrasti, Amaranthus retroflexus, Chenopodium album, Stellaria media, Galium spurium, Veronica persica, Zea mays, Glycine max, Oryza sativa, Triticum aestivum, Beta vulgaris ssp. vulgaris, and Brassica campestris L. was sowed in a spot-like manner and was covered with the soil of about 1.5 cm thick. Thereafter, the plants were grown in the greenhouse of 25° C. to 30° C. After the plants were grown for 14 days, the emulsion agent containing the compound of the present invention prepared in accordance with Formulation Example 2 was diluted with water so as to be a predetermined herbicide amount and the diluted compound was uniformly applied to a stem and leaf part with a small-size spray. Three weeks after the herbicide application, effects on each plant were investigated in accordance with the criteria of Test Example 1. A: Echinochloa oryzicola Vasing., B: Scirpus juncoides, C: Monochoria vaginalis, D: Leptochloa chinensis, E: Cyperus difformis, F: Digitaria ciliaris, G: Setaria viridis, H: Echinochloa crus-galli var. crus-galli, I: Avena fatua, J: Alopecurus myosuroides, K: Lolium multiflorum Lam., L: Apera spica-venti., M: Abutilon theophrasti, N: Amaranthus retroflexus, O: Chenopodium album, P: Stellaria media, Q: Galium spurium, R: Veronica persica, a: transplanted Oryza sativa, b: directly sowed Oryza sativa, c: Zea mays, d: Glycine max, e: Triticum aestivum, f: Beta vulgaris ssp. vulgaris, and g: Brassica campestris L. The application herbicide amount (g/ha) means an amount that a concentration is adjusted so that, when an application amount is converted into per hectare (1 ha), the herbicide is applied by the number of grams (g) of the described value.

Alopecurus myosuroides = experiment: as above; settings: Application herbicide amount 320 g/ha
Text: as §1

Apera spica-venti. = experiment: as above; settings: Application herbicide amount 320 g/ha
Text: as §1

Avena fatua = experiment: as above; settings: Application herbicide amount 320 g/ha
Text: as §1

Chenopodium album = experiment: as above; settings: Application herbicide amount 320 g/ha
Text: as §1

Digitaria ciliaris = experiment: as above; settings: Application herbicide amount 320 g/ha
Text: as §1

[1] = system: Echinochloa crus-galli var. crus-galli; experiment: as above; settings: Application herbicide amount 320 g/ha
Text: as §1

Galium spurium = experiment: as above; settings: Application herbicide amount 320 g/ha
Text: as §1

Lolium multiflorum Lam. = experiment: as above; settings: Application herbicide amount 320 g/ha
Text: as §1

Setaria viridis = experiment: as above; settings: Application herbicide amount 320 g/ha
Text: as §1

Veronica persica = experiment: as above; settings: Application herbicide amount 320 g/ha
Text: as §1

[2] = system: Beta vulgaris ssp. vulgaris; experiment: Test Example 4: effect on crop by application to foliage (diluvial soil, plastic box); settings: Application herbicide amount 320 g/ha; effect on crop
Text: as §1

Brassica campestris L. = experiment: as above; settings: Application herbicide amount 320 g/ha; effect on crop
Text: as §1

Glycine max = experiment: as above; settings: Application herbicide amount 320 g/ha; effect on crop
Text: as §1

Triticum aestivum = experiment: as above; settings: Application herbicide amount 320 g/ha; effect on crop
Text: as §1

Zea mays = experiment: as above; settings: Application herbicide amount 320 g/ha; effect on crop
Text: as §1

[3] = system: directly sowed Oryza sativa; experiment: as above; settings: Application herbicide amount 320 g/ha; effect on crop
Text: as §1

Cyperus difformis = experiment: Test Example 3: herbicidal effect by application to foliage (Wagner pot, water depth 0.1-0.5 cm); settings: Nineteenth Table; application to foliage; application herbicide amount 320 g/ha
Text: (§2) 5 Herbicidal ratio of 90% or more (almost completely withered) 4 Herbicidal ratio of 70% or more and less than 90% 3 Herbicidal ratio of 40% or more and less than 70% 2 Herbicidal ratio of 20% or more and less than 40% 1 Herbicidal ratio of 5% or more and less than 20% 0 Herbicidal ratio of 5% or less (almost no effect) [Test Example 3] Herbicidal Effect Test by Application to Foliage After alluvial soil was placed into 1/10000 are of Wagner pot, water was poured and mixed to form a condition having a water depth of 0.1 cm to 0.5 cm. Seeds of Echinochloa crus-galli var. crus-galli, Leptochloa chinensis, Cyperus difformis, and Oryza sativa were sowed and the pot was placed in the greenhouse of 25° C. to 30° C. to grow the plants. After the plants were grown for 14 days, the emulsion agent containing the compound of the present invention prepared in accordance with Formulation Example 2 was diluted with water so as to be a predetermined herbicide amount and the diluted compound was uniformly applied to a stem and leaf part with a small-size spray. Three weeks after the herbicide application, effects on each plant were investigated in accordance with the criteria of Test Example 1. A: Echinochloa oryzicola Vasing., B: Scirpus juncoides, C: Monochoria vaginalis, D: Leptochloa chinensis, E: Cyperus difformis, F: Digitaria ciliaris, G: Setaria viridis, H: Echinochloa crus-galli var. crus-galli, I: Avena fatua, J: Alopecurus myosuroides, K: Lolium multiflorum Lam., L: Apera spica-venti., M: Abutilon theophrasti, N: Amaranthus retroflexus, O: Chenopodium album, P: Stellaria media, Q: Galium spurium, R: Veronica persica, a: transplanted Oryza sativa, b: directly sowed Oryza sativa, c: Zea mays, d: Glycine max, e: Triticum aestivum, f: Beta vulgaris ssp. vulgaris, and g: Brassica campestris L. The application herbicide amount (g/ha) means an amount that a concentration is adjusted so that, when an application amount is converted into per hectare (1 ha), the herbicide is applied by the number of grams (g) of the described value.

[4] = system: Echinochloa crus-galli var. crus-galli; experiment: as above; settings: Nineteenth Table; application to foliage; application herbicide amount 320 g/ha
Text: as §2

Leptochloa chinensis = experiment: as above; settings: Nineteenth Table; application to foliage; application herbicide amount 320 g/ha
Text: as §2

[5] = system: directly sowed Oryza sativa; experiment: Test Example 3: effect on crop by application to foliage (Wagner pot, water depth 0.1-0.5 cm); settings: Nineteenth Table; application to foliage; application herbicide amount 320 g/ha
Text: as §2

SMILES	M (Abutilon theophrasti)	J (Alopecurus myosuroides)	L (Apera spica-venti.)	I (Avena fatua)	O (Chenopodium album)	F (Digitaria ciliaris)	H [1]	K (Lolium multiflorum Lam.)	G (Setaria viridis)	R (Veronica persica)	f [2]	g (Brassica campestris L.)	c (Glycine max)	e (Triticum aestivum)	b (Zea mays)	d [3]	E (herbicidal effect grade) (Cyperus difformis)	H (herbicidal effect grade) [4]	D (herbicidal effect grade) (Leptochloa chinensis)	b (effect on crop grade) [5]	other results
Cc1nnc(NC(=O)c2ccc(-c3cc(F)cc(F)c3)n3c(C(C)C)nnc23)o1 [1-088]	0 (Herbicidal ratio of 5% or less (almost no effect))	0 (Herbicidal ratio of 5% or less (almost no effect))	0 (Herbicidal ratio of 5% or less (almost no effect))	0 (Herbicidal ratio of 5% or less (almost no effect))	2 (Herbicidal ratio of 20% or more and less than 40%)	0 (Herbicidal ratio of 5% or less (almost no effect))	0 (Herbicidal ratio of 5% or less (almost no effect))	0 (Herbicidal ratio of 5% or less (almost no effect))	0 (Herbicidal ratio of 5% or less (almost no effect))	0 (Herbicidal ratio of 5% or less (almost no effect))	0 (Herbicidal ratio of 5% or less (almost no effect))	0 (Herbicidal ratio of 5% or less (almost no effect))	0 (Herbicidal ratio of 5% or less (almost no effect))	0 (Herbicidal ratio of 5% or less (almost no effect))	0 (Herbicidal ratio of 5% or less (almost no effect))	0 (Herbicidal ratio of 5% or less (almost no effect))					Q (Galium spurium): 0 (Herbicidal ratio of 5% or less (almost no effect))
Cc1nnc(NC(=O)c2ccc(C(F)(F)F)n3c(C(C)C)nnc23)n1C [5-001]																	0 (Herbicidal ratio of 5% or less (almost no effect))	1 (Herbicidal ratio of 5% or more and less than 20%)	0 (Herbicidal ratio of 5% or less (almost no effect))	0 (Herbicidal ratio of 5% or less (almost no effect))	
CC(C)c1nnc2c(C(=O)Nc3nnc(-c4ccccn4)o3)ccc(C(F)(F)F)n12 [1-101]																	0 (Herbicidal ratio of 5% or less (almost no effect))	1 (Herbicidal ratio of 5% or more and less than 20%)	0 (Herbicidal ratio of 5% or less (almost no effect))	0 (Herbicidal ratio of 5% or less (almost no effect))	
Cc1nnc(NC(=O)c2ccc(-c3ccccc3)n3c(C(C)C)nnc23)o1 [1-081]	0 (Herbicidal ratio of 5% or less (almost no effect))	0 (Herbicidal ratio of 5% or less (almost no effect))	0 (Herbicidal ratio of 5% or less (almost no effect))	0 (Herbicidal ratio of 5% or less (almost no effect))	4 (Herbicidal ratio of 70% or more and less than 90%)	0 (Herbicidal ratio of 5% or less (almost no effect))	0 (Herbicidal ratio of 5% or less (almost no effect))	0 (Herbicidal ratio of 5% or less (almost no effect))	0 (Herbicidal ratio of 5% or less (almost no effect))	0 (Herbicidal ratio of 5% or less (almost no effect))	1 (Herbicidal ratio of 5% or more and less than 20%)	0 (Herbicidal ratio of 5% or less (almost no effect))	0 (Herbicidal ratio of 5% or less (almost no effect))	0 (Herbicidal ratio of 5% or less (almost no effect))	0 (Herbicidal ratio of 5% or less (almost no effect))	0 (Herbicidal ratio of 5% or less (almost no effect))	0 (Herbicidal ratio of 5% or less (almost no effect))	2 (Herbicidal ratio of 20% or more and less than 40%)	0 (Herbicidal ratio of 5% or less (almost no effect))	0 (Herbicidal ratio of 5% or less (almost no effect))	
CON=Cc1nnc2c(C(=O)Nc3nnc(C)o3)ccc(C(F)(F)F)n12 [1-072]	1 (Herbicidal ratio of 5% or more and less than 20%)	0 (Herbicidal ratio of 5% or less (almost no effect))	0 (Herbicidal ratio of 5% or less (almost no effect))	0 (Herbicidal ratio of 5% or less (almost no effect))	4 (Herbicidal ratio of 70% or more and less than 90%)	0 (Herbicidal ratio of 5% or less (almost no effect))	3 (Herbicidal ratio of 40% or more and less than 70%)	0 (Herbicidal ratio of 5% or less (almost no effect))	0 (Herbicidal ratio of 5% or less (almost no effect))	1 (Herbicidal ratio of 5% or more and less than 20%)	0 (Herbicidal ratio of 5% or less (almost no effect))	0 (Herbicidal ratio of 5% or less (almost no effect))	0 (Herbicidal ratio of 5% or less (almost no effect))	0 (Herbicidal ratio of 5% or less (almost no effect))	0 (Herbicidal ratio of 5% or less (almost no effect))	0 (Herbicidal ratio of 5% or less (almost no effect))	0 (Herbicidal ratio of 5% or less (almost no effect))	2 (Herbicidal ratio of 20% or more and less than 40%)	1 (Herbicidal ratio of 5% or more and less than 20%)	0 (Herbicidal ratio of 5% or less (almost no effect))	Q (Galium spurium): 0 (Herbicidal ratio of 5% or less (almost no effect))
